pIC50: −log10 of the molar value. Calls of active or inactive are those of the source. The rule behind the calls is not given here.
Key:
[1] = target: Thyrotropin-releasing hormone receptor (Homo sapiens) (UniProt P34981); test: Binding affinity to human TRH1 receptor at 10 uM by radioligand binding assay
[2] = target: Vasopressin V1a receptor (Homo sapiens) (UniProt P37288); test: Binding affinity to human V1a receptor at 10 uM by radioligand binding assay
Homo sapiens [3] = species on record: Homo sapiens; test: Binding affinity to L-type calcium channel dihydropyridine binding site (unknown origin) at 10 uM by radioligand binding assay
[4] = tested on: Voltage-gated potassium channel; test: Binding affinity to voltage-gated potassium channel (unknown origin) at 10 uM by radioligand binding assay; format: protein assay; conditions: human
Homo sapiens [5] = species on record: Homo sapiens; test: Binding affinity to sodium channel site 2 (unknown origin) at 10 uM by radioligand binding assay
[6] = target: Sodium-dependent dopamine transporter (Homo sapiens) (UniProt Q01959); test: Binding affinity to human dopamine transporter at 10 uM by radioligand binding assay
Sodium-dependent dopamine transporter (Homo sapiens), sequence (Q01959 whole entry): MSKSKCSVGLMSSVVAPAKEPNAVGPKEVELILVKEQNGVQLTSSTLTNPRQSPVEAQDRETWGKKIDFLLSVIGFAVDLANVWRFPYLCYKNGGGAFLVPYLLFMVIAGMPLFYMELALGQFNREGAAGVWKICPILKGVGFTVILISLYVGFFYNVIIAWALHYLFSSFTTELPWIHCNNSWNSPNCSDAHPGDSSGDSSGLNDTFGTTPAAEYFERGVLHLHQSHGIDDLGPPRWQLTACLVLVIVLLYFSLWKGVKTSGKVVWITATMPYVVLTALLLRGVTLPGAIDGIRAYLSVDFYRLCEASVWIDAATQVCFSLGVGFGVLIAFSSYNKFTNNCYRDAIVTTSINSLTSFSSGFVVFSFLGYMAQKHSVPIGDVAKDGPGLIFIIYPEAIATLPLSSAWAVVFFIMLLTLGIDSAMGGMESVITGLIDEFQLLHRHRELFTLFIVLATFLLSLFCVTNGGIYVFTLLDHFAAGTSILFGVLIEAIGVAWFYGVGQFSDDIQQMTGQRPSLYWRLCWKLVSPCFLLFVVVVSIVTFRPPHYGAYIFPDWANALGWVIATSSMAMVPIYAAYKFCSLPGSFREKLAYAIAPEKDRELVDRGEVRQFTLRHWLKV

[7] = target: High affinity choline transporter 1 (Homo sapiens) (UniProt Q9GZV3); test: Binding affinity to human CHT1 transporter at 10 uM by radioligand binding assay
[8] = target: Dual specificity calcium/calmodulin-dependent 3',5'-cyclic nucleotide phosphodiesterase 1B (Homo sapiens) (UniProt Q01064); test: Binding affinity to human PDE1B at 10 uM
[9] = target: Protein kinase C alpha type (Homo sapiens) (UniProt P17252); test: Binding affinity to human PKC-alpha at 10 uM
[10] = target: 4-aminobutyrate aminotransferase, mitochondrial (Homo sapiens) (UniProt P80404); test: Binding affinity to GABA transaminase (unknown origin) at 10 uM
[11] = target: Centromere-associated protein E (Homo sapiens) (UniProt Q02224); test: Binding affinity to human CENP-E at 10 uM
[12] = target: Histone deacetylase 3 (Homo sapiens) (UniProt O15379); test: Binding affinity to human HDAC3 at 10 uM
[13] = target: Protein deacetylase HDAC6 (Homo sapiens) (UniProt Q9UBN7); test: Binding affinity to human HDAC6 at 10 uM
[14] = target: NAD-dependent protein deacetylase sirtuin-2 (Homo sapiens) (UniProt Q8IXJ6); test: Inhibition of human sirtuin 2 at 10 uM; design: scale not given: the % may be the effect or the level left
[15] = target: T1, Prostaglandin G/H synthase 1 (Ovis aries, UniProt P05979); test: Inhibition of ovine COX1 assessed as production of PGF2-alpha preincubated with compound followed by the addition of 5 uM arachidonic acid as substrate by enzyme immunoassay
T1 sequence (P05979 whole entry): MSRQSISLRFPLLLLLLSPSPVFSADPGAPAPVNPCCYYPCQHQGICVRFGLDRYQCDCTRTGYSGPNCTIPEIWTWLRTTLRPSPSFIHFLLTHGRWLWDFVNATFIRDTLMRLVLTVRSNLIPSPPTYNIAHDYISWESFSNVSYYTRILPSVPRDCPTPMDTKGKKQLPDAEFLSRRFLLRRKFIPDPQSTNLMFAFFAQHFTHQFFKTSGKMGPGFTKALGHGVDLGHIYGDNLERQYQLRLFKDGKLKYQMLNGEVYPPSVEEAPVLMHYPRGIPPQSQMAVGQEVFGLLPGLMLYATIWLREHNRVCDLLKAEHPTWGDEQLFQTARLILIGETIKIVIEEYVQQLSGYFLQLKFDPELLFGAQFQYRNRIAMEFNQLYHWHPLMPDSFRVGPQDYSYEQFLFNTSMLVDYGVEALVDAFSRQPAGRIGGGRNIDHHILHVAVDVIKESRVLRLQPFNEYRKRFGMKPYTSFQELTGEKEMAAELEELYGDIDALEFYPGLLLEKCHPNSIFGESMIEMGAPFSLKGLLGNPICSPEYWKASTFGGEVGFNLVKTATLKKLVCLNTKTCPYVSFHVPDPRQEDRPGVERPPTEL

Mus musculus [16] = test: In-vivo inhibition of COX in mouse plasma assessed as decrease in 6-keto-PGF1-alpha level at 1 mg/kg, iv after 1 hr by LC-MS/MS analysis; format: functional, organism-based
Mus musculus [17] = test: In-vivo inhibition of COX in mouse plasma assessed as decrease in TXA2 level at 1 mg/kg, iv after 1 hr by LC-MS/MS analysis; format: functional, organism-based
Mus musculus [18] = test: In-vivo inhibition of FAAH in mouse plasma assessed as increase in OEA level at 1 mg/kg, iv after 1 hr by LC-MS/MS analysis; format: functional, organism-based
[19] = target: Adenosine receptor A2a (Homo sapiens) (UniProt P29274); test: Binding affinity to human adenosine A2A receptor at 10 uM by radioligand binding assay
[20] = target: Adrenergic receptor alpha-2 (Homo sapiens) (UniProt P08913+P18825+P18089); test: Binding affinity to alpha-2 adrenergic receptor (unknown origin) at 10 uM by radioligand binding assay
[21] = target: B1 bradykinin receptor (Homo sapiens) (UniProt P46663); test: Binding affinity to human bradykinin 1 receptor at 10 uM by radioligand binding assay
B1 bradykinin receptor (Homo sapiens), sequence (P46663 whole entry): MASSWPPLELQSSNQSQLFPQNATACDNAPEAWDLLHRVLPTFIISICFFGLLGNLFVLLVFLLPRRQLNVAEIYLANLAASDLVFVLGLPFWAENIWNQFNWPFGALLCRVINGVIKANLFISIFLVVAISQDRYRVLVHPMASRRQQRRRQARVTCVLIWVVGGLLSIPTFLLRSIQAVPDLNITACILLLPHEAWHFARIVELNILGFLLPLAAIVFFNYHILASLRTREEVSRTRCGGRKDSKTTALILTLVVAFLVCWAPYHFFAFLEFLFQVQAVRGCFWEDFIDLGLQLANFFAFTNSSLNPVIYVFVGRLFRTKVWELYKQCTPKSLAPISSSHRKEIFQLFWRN

[22] = target: Cannabinoid receptor 1 (Homo sapiens) (UniProt P21554); test: Binding affinity to human cannabinoid receptor 1 at 10 uM by radioligand binding assay
Cannabinoid receptor 1 (Homo sapiens), sequence (P21554 whole entry): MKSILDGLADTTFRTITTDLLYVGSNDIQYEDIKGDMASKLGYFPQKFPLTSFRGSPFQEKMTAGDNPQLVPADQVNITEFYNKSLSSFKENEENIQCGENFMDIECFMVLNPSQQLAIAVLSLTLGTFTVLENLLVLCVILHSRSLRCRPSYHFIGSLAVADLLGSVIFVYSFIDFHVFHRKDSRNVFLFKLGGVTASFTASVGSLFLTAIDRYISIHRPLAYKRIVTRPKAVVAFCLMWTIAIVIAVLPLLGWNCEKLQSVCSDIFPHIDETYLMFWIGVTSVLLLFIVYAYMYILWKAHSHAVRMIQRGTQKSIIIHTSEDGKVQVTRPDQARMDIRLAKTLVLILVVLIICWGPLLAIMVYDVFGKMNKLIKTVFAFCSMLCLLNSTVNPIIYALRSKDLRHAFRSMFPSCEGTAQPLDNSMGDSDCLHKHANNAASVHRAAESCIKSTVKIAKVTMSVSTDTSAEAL

[23] = target: Cholecystokinin receptor type A (Homo sapiens) (UniProt P32238); test: Binding affinity to human cholecystokinin receptor type A at 10 uM by radioligand binding assay
[24] = target: D(1A) dopamine receptor (Homo sapiens) (UniProt P21728); test: Binding affinity to human dopamine D1 receptor at 10 uM by radioligand binding assay
D(1A) dopamine receptor (Homo sapiens), sequence (P21728 whole entry): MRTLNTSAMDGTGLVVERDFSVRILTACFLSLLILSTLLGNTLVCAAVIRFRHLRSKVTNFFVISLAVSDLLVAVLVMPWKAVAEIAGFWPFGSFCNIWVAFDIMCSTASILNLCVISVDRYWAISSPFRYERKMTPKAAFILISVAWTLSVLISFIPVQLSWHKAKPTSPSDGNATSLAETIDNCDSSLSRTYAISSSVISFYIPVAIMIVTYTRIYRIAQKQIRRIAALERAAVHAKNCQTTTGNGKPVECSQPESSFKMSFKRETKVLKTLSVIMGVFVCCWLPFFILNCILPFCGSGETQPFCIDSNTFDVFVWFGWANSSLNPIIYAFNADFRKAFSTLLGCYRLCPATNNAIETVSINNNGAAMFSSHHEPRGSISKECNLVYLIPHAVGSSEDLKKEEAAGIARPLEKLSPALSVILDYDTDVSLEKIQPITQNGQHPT

[25] = target: D(3) dopamine receptor (Homo sapiens) (UniProt P35462); test: Binding affinity to human dopamine D3 receptor at 10 uM by radioligand binding assay
D(3) dopamine receptor (Homo sapiens), sequence (P35462 whole entry): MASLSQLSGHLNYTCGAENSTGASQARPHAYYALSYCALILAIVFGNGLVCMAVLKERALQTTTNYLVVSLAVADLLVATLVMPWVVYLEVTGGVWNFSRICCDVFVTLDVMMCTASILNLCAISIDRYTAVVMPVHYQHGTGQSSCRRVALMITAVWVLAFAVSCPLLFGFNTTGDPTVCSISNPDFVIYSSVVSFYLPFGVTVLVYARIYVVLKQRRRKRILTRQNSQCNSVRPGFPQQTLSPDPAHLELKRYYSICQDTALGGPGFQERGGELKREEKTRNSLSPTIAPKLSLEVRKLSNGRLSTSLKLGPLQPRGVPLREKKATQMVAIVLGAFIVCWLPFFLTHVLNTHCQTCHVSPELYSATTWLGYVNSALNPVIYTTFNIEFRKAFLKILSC

Homo sapiens [26] = species on record: Homo sapiens; test: Binding affinity to GABA receptor (unknown origin) at 10 uM by radioligand binding assay
Homo sapiens [27] = species on record: Homo sapiens; test: Binding affinity to kainate receptor (unknown origin) at 10 uM by radioligand binding assay
[28] = target: Histamine H2 receptor (Homo sapiens) (UniProt P25021); test: Binding affinity to human histamine H2 receptor at 10 uM by radioligand binding assay
[29] = target: Neuromedin-K receptor (Homo sapiens) (UniProt P29371); test: Binding affinity to human neurokinin 3 receptor at 10 uM by radioligand binding assay
[30] = target: Neuronal acetylcholine receptor; alpha4/beta2 (Homo sapiens) (UniProt P17787+P43681); test: Binding affinity to human N neuronal alpha4beta2 receptor at 10 uM by radioligand binding assay; format: protein-complex assay
[31] = target: Opioid receptors; mu/kappa/delta (Homo sapiens) (UniProt P41145+P41143+P35372); test: Binding affinity to opioid receptor (unknown origin) at 10 uM by radioligand binding assay
Opioid receptors; mu/kappa/delta (Homo sapiens), sequence (P35372 whole entry, looked up): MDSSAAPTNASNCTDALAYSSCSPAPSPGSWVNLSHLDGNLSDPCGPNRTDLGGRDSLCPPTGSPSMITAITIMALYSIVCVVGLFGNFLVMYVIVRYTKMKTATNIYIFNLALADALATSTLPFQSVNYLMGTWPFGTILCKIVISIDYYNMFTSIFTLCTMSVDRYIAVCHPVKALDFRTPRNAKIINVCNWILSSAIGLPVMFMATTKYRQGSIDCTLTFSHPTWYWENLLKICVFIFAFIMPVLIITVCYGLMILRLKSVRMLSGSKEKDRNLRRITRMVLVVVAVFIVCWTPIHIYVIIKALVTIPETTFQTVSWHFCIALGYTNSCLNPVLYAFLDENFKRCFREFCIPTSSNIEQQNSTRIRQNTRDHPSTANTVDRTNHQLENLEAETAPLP
Opioid receptors; mu/kappa/delta (Homo sapiens), sequence (P41143 whole entry, looked up): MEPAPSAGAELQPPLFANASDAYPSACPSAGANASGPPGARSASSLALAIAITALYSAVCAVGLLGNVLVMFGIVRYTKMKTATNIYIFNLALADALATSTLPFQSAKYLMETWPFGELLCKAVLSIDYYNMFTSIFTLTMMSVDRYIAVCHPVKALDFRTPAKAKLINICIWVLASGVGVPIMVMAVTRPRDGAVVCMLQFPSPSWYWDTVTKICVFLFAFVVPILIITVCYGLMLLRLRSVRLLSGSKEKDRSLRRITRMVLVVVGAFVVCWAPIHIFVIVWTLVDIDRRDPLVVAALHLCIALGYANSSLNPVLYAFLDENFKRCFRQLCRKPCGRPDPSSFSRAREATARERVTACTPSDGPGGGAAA
Opioid receptors; mu/kappa/delta (Homo sapiens), sequence (P41145 whole entry, looked up): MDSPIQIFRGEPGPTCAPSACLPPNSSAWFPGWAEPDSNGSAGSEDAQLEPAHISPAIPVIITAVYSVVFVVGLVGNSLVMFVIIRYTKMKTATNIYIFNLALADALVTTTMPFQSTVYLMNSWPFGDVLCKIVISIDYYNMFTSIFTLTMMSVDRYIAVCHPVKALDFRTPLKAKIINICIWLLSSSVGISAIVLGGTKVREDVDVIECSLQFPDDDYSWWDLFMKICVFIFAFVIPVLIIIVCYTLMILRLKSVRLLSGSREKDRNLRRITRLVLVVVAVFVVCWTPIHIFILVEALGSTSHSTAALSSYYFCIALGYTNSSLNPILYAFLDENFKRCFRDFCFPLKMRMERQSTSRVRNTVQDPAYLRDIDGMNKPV

[32] = target: Peroxisome proliferator-activated receptor gamma (Homo sapiens) (UniProt P37231); test: Binding affinity to human PPAR-gamma receptor at 10 uM by radioligand binding assay
Homo sapiens [33] = species on record: Homo sapiens; test: Binding affinity to PCP receptor (unknown origin) at 10 uM by radioligand binding assay
[34] = target: Prostaglandin E2 receptor EP2 subtype (Homo sapiens) (UniProt P43116); test: Binding affinity to human EP2 receptor at 10 uM by radioligand binding assay

Vasopressin V1a receptor (Homo sapiens), sequence (P37288 whole entry, looked up): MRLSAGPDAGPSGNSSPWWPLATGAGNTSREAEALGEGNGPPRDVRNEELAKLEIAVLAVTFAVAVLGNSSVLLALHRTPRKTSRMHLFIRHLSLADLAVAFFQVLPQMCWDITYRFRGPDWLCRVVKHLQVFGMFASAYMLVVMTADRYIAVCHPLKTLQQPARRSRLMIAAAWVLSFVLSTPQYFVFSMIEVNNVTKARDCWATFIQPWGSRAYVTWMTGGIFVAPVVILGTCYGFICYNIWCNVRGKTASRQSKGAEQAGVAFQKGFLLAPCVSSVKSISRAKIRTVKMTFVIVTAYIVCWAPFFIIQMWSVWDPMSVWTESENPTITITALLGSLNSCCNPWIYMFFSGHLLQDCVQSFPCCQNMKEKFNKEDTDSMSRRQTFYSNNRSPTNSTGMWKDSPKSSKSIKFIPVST
Thyrotropin-releasing hormone receptor (Homo sapiens), sequence (P34981 whole entry): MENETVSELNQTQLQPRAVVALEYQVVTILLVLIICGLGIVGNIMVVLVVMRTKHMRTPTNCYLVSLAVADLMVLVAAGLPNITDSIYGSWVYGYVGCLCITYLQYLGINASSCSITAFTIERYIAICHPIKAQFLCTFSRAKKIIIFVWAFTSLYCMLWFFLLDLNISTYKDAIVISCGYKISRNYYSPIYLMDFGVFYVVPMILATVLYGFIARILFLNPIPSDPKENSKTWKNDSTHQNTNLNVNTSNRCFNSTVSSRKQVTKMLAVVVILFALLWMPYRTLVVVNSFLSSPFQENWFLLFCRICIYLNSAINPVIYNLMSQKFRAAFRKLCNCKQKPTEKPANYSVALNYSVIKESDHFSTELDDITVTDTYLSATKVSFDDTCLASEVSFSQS

Question: How did the Activity [1] turn out when `CCCCCCNC(=O)Oc1cccc(-c2ccc([C@H](C)C(=O)O)cc2F)c1` was run?
Answer: Its Activity is -14.9%.

Question: What about the Activity [2] of the same molecule?
Answer: Its Activity is 0.4%.

Question: And the Activity (Homo sapiens [3])?
Answer: The Activity was -19.3%.

Question: What about the Activity [4] of the same molecule?
Answer: The Activity was -9.9%.

Question: What about the Activity (Homo sapiens [5]) of the same molecule?
Answer: The Activity was -0.5%.

Question: What about the Activity [6] of the same molecule?
Answer: The Activity was 13.5%.

Question: And the Activity [7]?
Answer: Its Activity is -18.6%.

Question: And the Activity [8]?
Answer: The Activity was 28.3%.

Question: What about the Activity [9] of the same molecule?
Answer: The Activity was -26.1%.

Question: And the Activity [10]?
Answer: The Activity was 7.6%.

Question: And the Activity [11]?
Answer: The Activity was -3.3%.

Question: And the Activity [12]?
Answer: The Activity was -4.3%.

Question: What about the Activity [13] of the same molecule?
Answer: Its Activity is -10.6%.

Question: And the Activity [14]?
Answer: Its Activity is 1.3%.

Question: What about the pIC50 [15] of the same molecule?
Answer: The pIC50 was 9.54.

Question: And the inhibition (Mus musculus [16])?
Answer: The inhibition was “Active”.

Question: What about the inhibition (Mus musculus [17]) of the same molecule?
Answer: Its inhibition is “Active”.

Question: What about the inhibition (Mus musculus [18]) of the same molecule?
Answer: Its inhibition is “Active”.

Question: And the Activity [19]?
Answer: The Activity was -7.3%.

Question: And the Activity [20]?
Answer: The Activity was -13.6%.

Question: And the Activity [21]?
Answer: The Activity was -5.1%.

Question: What about the Activity [22] of the same molecule?
Answer: The Activity was 38.1%.

Question: What about the Activity [23] of the same molecule?
Answer: The Activity was 10.8%.

Question: And the Activity [24]?
Answer: Its Activity is -5.6%.

Question: What about the Activity [25] of the same molecule?
Answer: The Activity was 0.7%.

Question: What about the Activity (Homo sapiens [26]) of the same molecule?
Answer: The Activity was -9.5%.

Question: What about the Activity (Homo sapiens [27]) of the same molecule?
Answer: Its Activity is 17.1%.

Question: And the Activity [28]?
Answer: Its Activity is -0.4%.

Question: And the Activity [29]?
Answer: The Activity was 2.8%.

Question: What about the Activity [30] of the same molecule?
Answer: The Activity was -5.6%.

Question: What about the Activity [31] of the same molecule?
Answer: The Activity was 15.5%.

Question: And the Activity [32]?
Answer: The Activity was 80.1%.

Question: What about the Activity (Homo sapiens [33]) of the same molecule?
Answer: The Activity was -10.7%.

Question: What about the Activity [34] of the same molecule?
Answer: The Activity was 45%.
